According to patent EP1948196B1, “USE OF TETRAORGANOSILICON COMPOUNDS” (Salama, Zoser B., priority 2005, dated 2007):
In brackets after ≈: the same amount, converted by molar mass. Where two headings read alike, the source gives them in different places.

Assays:
Maus = assay: Pharmacological observation in the mouse (central, vegetative and toxic effects, acute toxicity); format: in vivo
Source text: Pharmakologische Untersuchungen an der Maus
Die Verbindungen wurden an der Maus auf zentrale, vegetative und toxische Effekte geprüft. Durch systemische Einzelbeobachtungen sind neben der akuten Toxizität (orienberende letale Dosis, oLD) zentrale und vegetative Wirkungen der Testsubstanzen, insbesondere Effekte auf die Motorik und das Reaktionsvermögen, die Haut- und Rektaltemperatur sowie auf die Pupillenmotorik erfasst worden. Die getesteten Dosierungen betrugen 5 •10^-4, 1 • 10^-3 und 5 • 10^-3 mol/kg Körpergewicht Letale Wirkungen konnten bei keiner der Verbindungen beobachtet werden. Die oLD lag für Di(tetradecanoyloxy)dimethylsilan und Di(octadecanoyloxy)dimethylsilan unter 1 • 10^-3 mol/kg Körpergewicht für alle übrigen Verbindungen unter 5 • 10^-3 mollkg Körpergewicht.

Krebszellen = assay: Mean IC50 over all cancer cell lines; format: cell-based; details: read-out: IC50 Krebszellen (Durchschnitt ± SD)
Protocol: (§1) Die Silane 1, 5, 9, 10, 11, 13, 15, 16 wurden in Ethanol gelöst und in MTT Assays in einer anfänglichen Konzentration von 200 µg/ml (5 Lösungsschritte 200 - 12.5 µg/ml) verwendet. Die Platten wurde für eine Dauer.von 4 Tagen inkubiert und die Entwicklungsfähigkeit mithilfe des EZ4U Test bestimmt. Die IC50 Werte wurden ausgehend von Dosierungs-Reaktions-Linien berechnet Zelllinien: Colo 205 and HT29 - Kolonkarzinom; BxPC3 and MIAPaCa2 - Pankreaskrebs; CRO2B - karzinoid, A431 Epidermalkarzinom; normale Zellen: WI38 - humane embryonale Fibroblasten; NIH3T3 - mausartige Fibroblasten; IEC6 - mausartige Enterozyten.
(§2) Mittelwerte-IC50 für alle Krebs- oder normalen Zelllinien: […]

[1] = test system: Panc1 Pankreaskrebszellen; assay: subG1 apoptotic fraction, propidium iodide, flow cytometry; format: cell-based; details: 50 µg/ml, 4 Tage
Protocol: (§3) Die Zellen (IEC6 mausartige Enterozyten; Panc1 Pankreaskrebszellen; Colo205 Kolonkarzinom) wurden mit 50 µg/ml Silanen inkubiert und nach 4-tägiger Aussetzung auf DNA eingefärbt (Propidiumiodid). Die SubG1 Zellteilung wurde mittels Durchflusscytometrie bestimmt.

Colo205 Kolonkarzinom = assay: as above; format: cell-based; details: 50 µg/ml, 4 Tage
Protocol: as §3

[2] = test system: IEC6 mausartige Enterozyten; assay: as above; format: cell-based; details: 50 µg/ml, 4 Tage
Protocol: as §3

Basalzellkarzinome = assay: Effect on basal cell carcinomas
[3] = test system: Kälber-Aortenendothelzellinie BKEz-7; assay: tissue or blood; format: cell-based; details: for IC50: suspensions, 48 Stunden bei 37°C
Source text: Prüfung auf zytotoxisches Potential an Kälber-Aortenendothelzellinie BKEz-7
Als Marker für eine zytotoxische Wirkung wird bei Zellen der charakterisierten Kälber-Aortenendothelzellinie BKEz-7 die Hemmkonzentration ermittelt, bei der eine 50%-ige Hemmung der Zellproliferation erfolgt (im Vergleich zu Kontrollkulturen ohne Zusatz eines Zellinhibitors). Die resultierende Reduzierung der Zellzahl um 50% wird als IC 50 ausgedrückt. Die getesteten Silanverbindungen wurden als Suspensionen auf die Kulturen gegeben und 48 Stunden bei 37°C inkubiert. Zusätzlich erfolgten morphologische Kontrollen und Vitalitätsbestimmungen mittels dem Neutralrot-Test. Mit Ausnahme des Di(dodecanoyloxy)dimethylsilans standen alle Ergebnisse der morphologischen Untersuchungen in guter Übereinstimmung. […]

BxPC3 - Pankreaskrebs = assay: MTT assay / EZ4U test, 4 days; format: cell-based; details: Homo sapiens
Protocol: as §1

HT29 - Kolonkarzinom = assay: MTT assay / EZ4U test, 4 days; format: cell-based; details: Homo sapiens
Protocol: as §1

CRO2B - karzinoid = assay: MTT assay / EZ4U test, 4 days; format: cell-based; details: read-out: IC50 CR02B
Protocol: as §1

[4] = test system: IEC6 - mausartige Enterozyten; assay: MTT assay / EZ4U test, 4 days; format: cell-based; details: Rattus norvegicus
Protocol: as §1

MIAPaCa2 - Pankreaskrebs = assay: MTT assay / EZ4U test, 4 days; format: cell-based; details: Homo sapiens
Protocol: as §1

A431 Epidermalkarzinom = assay: MTT assay / EZ4U test, 4 days; format: cell-based; details: Homo sapiens
Protocol: as §1

Colo 205 - Kolonkarzinom = assay: MTT assay / EZ4U test, 4 days; format: cell-based; details: Homo sapiens
Protocol: as §1

[5] = test system: NIH3T3 - mausartige Fibroblasten; assay: MTT assay / EZ4U test, 4 days; format: cell-based; details: Mus musculus
Protocol: as §1

[6] = test system: WI38 - humane embryonale Fibroblasten; assay: MTT assay / EZ4U test, 4 days; format: cell-based; details: Homo sapiens
Protocol: as §1

colo205 (Kofon-Karzinom) = assay: MTT test, triplicate, two-fold dilutions; format: cell-based; details: Homo sapiens
Protocol: (§4) Die Silan wurden in Ethanol aufgelöst und in Zellkulturmedien in Konzentrationen von bis zu 500 µg/ml resuspendiert. Es wurden MTT Tests in dreifacher Ausführung durchgeführt, für welche doppelte Lösungen (7 Schritte) und colo205 (Kofon-Karzinom), BxPC3 (pankreatisches Adenokarzinom) sowie T47D (Brustkrebs) benutzt wurden.

[7] = test system: BxPC3 (pankreatisches Adenokarzinom); assay: MTT test, triplicate, two-fold dilutions; format: cell-based; details: Homo sapiens
Protocol: as §4

T47D (Brustkrebs) = assay: MTT test, triplicate, two-fold dilutions; format: cell-based; details: Homo sapiens, T47D, read-out: IC50 T47D
Protocol: as §4

Normale Zellen = assay: Mean IC50 over all normal cell lines; format: cell-based; details: read-out: IC50 Normale Zellen (Durchschnitt ± SD)
Protocol: as §1, §2

[8] = BXPC-3, 200 - 12.5 µg/ml, 4 Tage, read-out: IC50 BxPC3
[9] = HT-29, 200 - 12.5 µg/ml, 4 Tage, read-out: IC50 HT29
[10] = IEC-6, 200 - 12.5 µg/ml, 4 Tage, read-out: IC50 IEC6
[11] = MIA PaCa-2, 200 - 12.5 µg/ml, 4 Tage, read-out: IC50 MlAPaCa2
[12] = A-431, 200 - 12.5 µg/ml, 4 Tage, read-out: IC50 A431
[13] = COLO 205, 200 - 12.5 µg/ml, 4 Tage, read-out: IC50 Colo205
[14] = NIH3T3, 200 - 12.5 µg/ml, 4 Tage, read-out: IC50 NIH3T3
[15] = WI-38, 200 - 12.5 µg/ml, 4 Tage, read-out: IC50 WI38
[16] = COLO 205, up to 500 µg/ml, read-out: IC50 Colo205
[17] = BXPC-3, up to 500 µg/ml, read-out: IC50 BxPC3
[18] = COLO 205, read-out: IC50 Colo205

Row | Compound | zentrale, vegetative und toxische Effekte (Verhaltensänderungen) (Maus; 1•10^-3 mol/kg) | zentrale, vegetative und toxische Effekte (Verhaltensänderungen) (Maus; 5•10^-3 mol/kg) | zentrale, vegetative und toxische Effekte (Verhaltensänderungen) (Maus; 5•10^-4 mol/kg) | IC50 (Krebszellen; mean over cancer cell lines) [µg/mL] | subG1 apoptotische Zellteilung Panc1 [1] | subG1 apoptotische Zellteilung Colo205 (Colo205 Kolonkarzinom) | subG1 apoptotische Zellteilung IEC6 [2] | Wirkung auf Basalzellkarzinome (Basalzellkarzinome) | Bedenkliche Toxizität [3] | IC50 [3] [µM] | IC50 (BxPC3 - Pankreaskrebs; [8]) [µg/mL] | IC50 (HT29 - Kolonkarzinom; [9]) [µg/mL] | IC50 (CRO2B - karzinoid; 200 - 12.5 µg/ml, 4 Tage) [µg/mL] | IC50 [4, 10] [µg/mL] | IC50 (MIAPaCa2 - Pankreaskrebs; [11]) [µg/mL] | IC50 (A431 Epidermalkarzinom; [12]) [µg/mL] | IC50 (Colo 205 - Kolonkarzinom; [13]) [µg/mL] | IC50 [5, 14] [µg/mL] | IC50 [6, 15] [µg/mL] | IC50 (colo205 (Kofon-Karzinom); [16]) [µg/mL] | also measured
1 | CCCCCCCCCCCCCC(=O)O[Si](OC(=O)CCCCCCCCCCCCC)(c1ccccc1)c1ccccc1 [Si15, Di (tetradecanoyloxy) diphenylsilan] | Ataxie, Hyper-aktivität | schwache Ataxie, Piloerektion | keine Verhaltensänderungen | 30 (≈ 47.1 µM) | 48,6 ± 0,6 | 37,6 ± 0,21 | 2,9 ± 0,42 | zeigen eine Wirkung | - | 46 | 33.8 (≈ 53.1 µM) | 39.4 (≈ 61.8 µM) | 12.5 (≈ 19.6 µM) | 19.1 (≈ 30 µM) | 37 (≈ 58.1 µM) | 34.5 (≈ 54.2 µM) | 30 (≈ 47.1 µM) | 29.4 (≈ 46.2 µM) | 35 (≈ 54.9 µM) | 62 (≈ 97.3 µM) | IC50 [7, 17]: 15 µg/mL (≈ 23.5 µM); IC50 (T47D (Brustkrebs); up to 500 µg/ml): 15 µg/mL (≈ 23.5 µM); IC50 (Normale Zellen; mean over normal cell lines): 27.8 µg/mL (≈ 43.6 µM)
2 | CCCCCCCCCCCCCCCCC(=O)O[Si](CC)(CC)OC(=O)CCCCCCCCCCCCCCCC [Si1, Di (heptadecanoyloxy) diethylsilan] |  |  |  |  | 57,7 ± 0,07 | 3.0 ± 0,14 | 6,55 ± 0,49 |  |  |  |  |  |  |  |  |  |  |  |  |  | IC50 (Krebszellen): 33.2 µg/mL (≈ 53.1 µM); IC50 (BxPC3 - Pankreaskrebs; BXPC-3, read-out: IC50 BxPC3): 37 µg/mL (≈ 59.2 µM); IC50 (HT29 - Kolonkarzinom; HT-29, read-out: IC50 HT29): 41.5 µg/mL (≈ 66.4 µM); IC50 (CRO2B - karzinoid): 22.8 µg/mL (≈ 36.5 µM); IC50 ([4]; IEC-6, read-out: IC50 IEC6): 28.1 µg/mL (≈ 45 µM); IC50 (MIAPaCa2 - Pankreaskrebs; MIA PaCa-2, read-out: IC50 MlAPaCa2): 50 µg/mL (≈ 80 µM); IC50 (A431 Epidermalkarzinom; A-431, read-out: IC50 A431): 31.8 µg/mL (≈ 50.9 µM); IC50 (Colo 205 - Kolonkarzinom; [18]): 37 µg/mL (≈ 59.2 µM); IC50 ([5]; NIH3T3, read-out: IC50 NIH3T3): 36.2 µg/mL (≈ 57.9 µM); IC50 ([6]; WI-38, read-out: IC50 WI38): 26.2 µg/mL (≈ 41.9 µM); IC50 (colo205 (Kofon-Karzinom); [18]): 125 µg/mL (≈ 200 µM); IC50 ([7]; BXPC-3, read-out: IC50 BxPC3): 15 µg/mL (≈ 24 µM); IC50 (T47D (Brustkrebs)): 15 µg/mL (≈ 24 µM); IC50 (Normale Zellen): 30.1 µg/mL (≈ 48.2 µM)
3 | CCCCCCCCCCCCCCCCCC(=O)O[Si](OC(=O)CCCCCCCCCCCCCCCCC)(c1ccccc1)c1ccccc1 [Si10, Di (octadecanoyloxy) diphenylsilan] | schwache Ataxie, Hyperaktivität und Piloerektion | schwache Ataxie | keine Verhaltensänderungen | 21.9 (≈ 29.2 µM) | 60,7 ± 0,2 | 43,9 ± 1,41 | 13,4 ± 0,42 | zeigen eine Wirkung | - | 84 | 20 (≈ 26.7 µM) | 27.5 (≈ 36.7 µM) | 18.5 (≈ 24.7 µM) | 17.2 (≈ 23 µM) | 37 (≈ 49.4 µM) | 21.9 (≈ 29.2 µM) | 30.6 (≈ 40.8 µM) | 22.2 (≈ 29.6 µM) | 21.8 (≈ 29.1 µM) | 60 (≈ 80.1 µM) | IC50 [7, 17]: 15 µg/mL (≈ 20 µM); IC50 (T47D (Brustkrebs); up to 500 µg/ml): 15 µg/mL (≈ 20 µM); IC50 (Normale Zellen; mean over normal cell lines): 20.4 µg/mL (≈ 27.2 µM)
